Reference: ChEMBL document CHEMBL3632532, “Beyond the affinity for protein kinase C: exploring 2-phenyl-3-hydroxypropyl pivalate analogues as C1 domain-targeting ligands” (Medchemcomm, 2015)

Legend:
[1] = target: T1, Protein kinase C delta type (Homo sapiens, UniProt Q05655); assay: Displacement of [3H]PDBu from recombinant human PKCdelta C1 domain expressed in baculovirus infected insect Sf9 cells at 100 uM after 10 mins by liquid scintillation counting analysis relative to control
Target sequence in this assay (Q05655 whole entry, looked up, the tested form may be a part): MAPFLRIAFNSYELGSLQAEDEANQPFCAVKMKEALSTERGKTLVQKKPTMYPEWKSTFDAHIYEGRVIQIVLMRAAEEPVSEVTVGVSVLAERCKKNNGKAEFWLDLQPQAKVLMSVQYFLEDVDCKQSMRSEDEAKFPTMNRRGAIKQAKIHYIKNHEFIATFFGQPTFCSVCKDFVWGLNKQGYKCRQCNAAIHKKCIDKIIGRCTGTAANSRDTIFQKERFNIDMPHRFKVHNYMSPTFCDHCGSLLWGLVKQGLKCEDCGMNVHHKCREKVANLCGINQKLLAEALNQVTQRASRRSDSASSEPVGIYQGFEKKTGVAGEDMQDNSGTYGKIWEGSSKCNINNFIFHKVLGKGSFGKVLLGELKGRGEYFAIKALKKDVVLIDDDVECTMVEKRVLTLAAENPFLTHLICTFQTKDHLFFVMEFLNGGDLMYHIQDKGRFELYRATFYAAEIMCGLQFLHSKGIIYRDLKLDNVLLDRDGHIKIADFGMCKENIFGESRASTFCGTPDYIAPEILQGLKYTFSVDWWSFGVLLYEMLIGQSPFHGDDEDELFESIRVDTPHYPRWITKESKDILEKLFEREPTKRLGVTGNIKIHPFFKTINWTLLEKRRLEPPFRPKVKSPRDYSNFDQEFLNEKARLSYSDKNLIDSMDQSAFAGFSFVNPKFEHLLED

[2] = target: T2, Protein kinase C alpha type (Homo sapiens, UniProt P17252); assay: Displacement of [3H]PDBu from recombinant human PKCalpha C1 domain expressed in baculovirus infected insect Sf9 cells at 100 uM after 10 mins by liquid scintillation counting analysis relative to control
[3] = target: T2, Protein kinase C alpha type; assay: Displacement of [3H]PDBu from recombinant human PKCalpha C1 domain expressed in baculovirus infected insect Sf9 cells assessed as residual radiolabeled binding at 100 uM after 10 mins by liquid scintillation counting analysis relative to control
[4] = target: T1, Protein kinase C delta type; assay: Displacement of [3H]PDBu from recombinant human PKCdelta C1 domain expressed in baculovirus infected insect Sf9 cells assessed as residual radiolabeled binding at 100 uM after 10 mins by liquid scintillation counting analysis relative to control
Target sequence in this assay (Q05655 whole entry, looked up, the tested form may be a part): as the sequence (Q05655 whole entry, looked up, the tested form may be a part) above

[5] = target: T1, Protein kinase C delta type; assay: Displacement of [3H]PDBu from recombinant human PKCdelta C1 domain expressed in baculovirus infected insect Sf9 cells after 10 mins by liquid scintillation counting analysis
[6] = target: T2, Protein kinase C alpha type; assay: Displacement of [3H]PDBu from recombinant human PKCalpha C1 domain expressed in baculovirus infected insect Sf9 cells after 10 mins by liquid scintillation counting analysis

`O=C(Cc1ccccc1)OCC(CO)c1ccc(OCc2ccccc2)cc1` (single isomer, unassigned; (-)) was tested, and the inhibition [1] was 26.3% and the inhibition [2] was 26.3%.

With `CN(Cc1ccccc1)C(=O)CC(CO)c1cccc(OCc2ccccc2)c1` (stereo not drawn) the Activity [3] was 72.4%.

With `CC(C)(C)C(=O)OCC(CO)c1ccc(OCc2ccccc2)cc1` (single isomer, unassigned) the inhibition [1] was 36.3% and the inhibition [2] was 36.3%.

Work on `CCN(CC)C(=O)CC(CO)c1ccc(-c2ccccc2)cc1` (stereo not drawn) yielded an Activity [3] of 84.4%.

In the case of `CC(C)(C)C(=O)OCC(CO)c1ccc(OCc2ccccc2)cc1` (racemic) [listing 1 of 2 here], the Residual [3H]PDBu binding [4] is reported as 29.3% and the Activity [3] is reported as 41.6%.

Compound `CCN(CC)C(=O)CC(CO)c1cccc(OCc2ccccc2)c1` (stereo not drawn) has an Activity [3] of 90%.

`O=C(Cc1ccccc1)OCC(CO)c1ccc(OCc2ccccc2)cc1` (single isomer, unassigned) gave an inhibition [1] of 27.3% and an inhibition [2] of 27.3%.

Compound `CC(C)(C)C(=O)OCC(CO)c1ccc(OCc2ccccc2)cc1` (single isomer, unassigned; (+)) has an inhibition [1] of 34.6% and an inhibition [2] of 34.6%.

`O=C(CC(CO)c1cccc(OCc2ccccc2)c1)N1CCOCC1` (stereo not drawn) showed an Activity [3] of 99.7%.

`CN(Cc1ccccc1)C(=O)CC(CO)c1ccc(OCc2ccccc2)cc1` (stereo not drawn) was tested, and the Activity [3] was 80.6%.

`O=C(CC(CO)c1ccc(-c2ccccc2)cc1)OCc1ccccc1` (stereo not drawn) was tested, and the Residual [3H]PDBu binding [4] was 56.7%, the inhibition [5] was “Dose-dependent effect” and the inhibition [6] was “Dose-dependent effect”. The Activity [3] was 64.4%.

Compound `CC(C)(C)C(=O)OCC(CO)c1ccc(OCc2ccccc2)cc1` (racemic) [listing 2 of 2 here] has an IC50 [5] of 33.2 µM and an IC50 [6] of 37.5 µM.

Work on `O=C(CC(CO)c1ccc(OCc2ccccc2)cc1)N1CCOCC1` (stereo not drawn) yielded an Activity [3] of 107%.

For `O=C(CC(CO)c1ccc(OCc2ccccc2)cc1)OCc1ccccc1` (stereo not drawn), the Residual [3H]PDBu binding [4] was 61.6%, the inhibition [5] was “Dose-dependent effect” and the inhibition [6] was “Dose-dependent effect”. The Activity [3] was 73.9%.

`CN(Cc1ccccc1)C(=O)CC(CO)c1ccc(-c2ccccc2)cc1` (stereo not drawn) gave an Activity [3] of 76.1%.

With `O=C(CC(CO)c1ccc(-c2ccccc2)cc1)N1CCOCC1` (stereo not drawn) the Activity [3] was 86.6%.

With `O=C(Cc1ccccc1)OCC(CO)c1ccc(OCc2ccccc2)cc1` (racemic) [listing 1 of 2 here] the IC50 [5] was 39.9 µM and the IC50 [6] was 73.9 µM.

`CCN(CC)C(=O)CC(CO)c1ccc(OCc2ccccc2)cc1` (stereo not drawn) showed an Activity [3] of 100%.

In the case of `O=C(Cc1ccccc1)OCC(CO)c1ccc(OCc2ccccc2)cc1` (racemic) [listing 2 of 2 here], the Residual [3H]PDBu binding [4] is reported as 34.8%, the inhibition [6] is reported as “Dose-dependent effect” and the Activity [3] is reported as 51.3%.

In the case of `O=C(CC(CO)c1cccc(OCc2ccccc2)c1)OCc1ccccc1` (stereo not drawn), the Residual [3H]PDBu binding [4] is reported as 52.5%, the inhibition [5] is reported as “Dose-dependent effect” and the inhibition [6] is reported as “Dose-dependent effect”. For the same compound, the Activity [3] was 67.4%.
